Source: patent US4130648A, “5-Fluorouracil derivatives and antitumor preparations containing the same” (Eisai Co., Ltd., priority 1976, dated 1978)
Read-outs that look alike come from different tables or passages of the source.

Tests used:
Sarcoma-180 (S-180) [1] = experiment: Effect on growth of solid tumor by oral administration, S-180; assay type: in vivo, mice (ICR/JCL, female); settings: for Tumor growth (weight : T/C %): 3 hours after implantation, 20 days after; for minimal effective dose: Mus musculus, 480 h, read-out: minimum effective dose
Method: (3) Effect on growth of solid tumor by oral administration
1.8 × 10^6 cells of S-180 were implanted subcutaneously in ICR/JCL mice (female, 6-8 weeks old).
Each of the drugs was orally administered as a solution of safflower oil 3 hours after the implantation.
Safflower oil was administered as control for each of the drugs.
Twenty days after, the tumor weight was measured, and the ratio of the tumor weight to that of the control group (T/C %) was calculated.

L-1210 leukemia [2] = experiment: Duration of antitumor activity, L-1210 leukemia; assay type: in vivo, mice (CDF1, female)
Excerpt: (2) Duration of antitumor activity
10^5 cells of L-1210 leukemia were intraperitoneally implanted in the mice.
Survival days after the implantation were counted.

L-1210 leukemia [3] = experiment: Survival effect, L-1210 leukemia; assay type: in vivo, mice (CDF1, female); settings: for ILS % over controls / Mean survival days: 24 hours after implantation
Method: 3. Antitumor activity on L-1210 leukemia
10^5 cells of L-1210 leukemia were intraperitoneally implanted in CDF1 mice (female, 8-10 weeks old). […]
MCT was administered as control for Compound A.
Mean survival time after the implantation was determined, and the increase in life-span (ILS) over controls was calculated.

Sarcoma-180 (S-180) [4] = experiment: Inhibitory effect on the growth of S-180 ascites form (TPCV); assay type: in vivo, mice (ICR/JCL, female); settings: for Tumor growth (TPCV : T/C %): i.p., 24 hours after implantation, day 10; for ED50: Mus musculus, ip, 240 h; for ED50 / safety index (LD50 /ED50): S-180 ascites form, from Tables 1 and 2
Method: 2. Antitumor activity against Sarcoma-180 (S-180)
(1) Inhibitory effect on the growth of S-180 ascites form (Intraperitoneal administration)
10^6 cells of S-180 were intraperitoneally implanted in ICR/JCL mice (female, 8-10 weeks old).
Compound A was administered as a solution of soybean oil and 5-FU was administered as saline solution, at 24 hours after the implantation.
Soybean oil was administered as control for the Compound A. Saline solution was administered as control for 5-FU.
Ten days after the implantation of the tumor cells, the total packed cell volumes (TPCV) were measured. The measurement of TPCV was carried out in accordance with Hoshi, A. et al., Chemical & Pharmaceutical Bulletion 17 (4), 848-850 (1969). The results are shown in Table 2, wherein T/C % means the ratio of the TPCV of the test groups to that of the control group.

Sarcoma-180 (S-180) [5] = experiment: Survival effect, S-180; assay type: in vivo, mice (ICR/JCL, female); settings: for ILS (%) over control / Mean survival days: 24 hours after implantation
Method: 10^6 cells of S-180 were intraperitoneally implanted in ICR/JCL mouse (female, 6-8 weeks old).
Compound A was administered as a solution of soybean oil at 24 hours after the implantation.
Soybean oil was administered as control for Compound A.
Survival days after implantation was measured. The increase in life-span over control groups (ILS = T/C % - 100) was calculated.

[6] = Acute toxicity, LD50 after three weeks observation; assay type: in vivo, mice (CDF1, female); settings: mouse, in vivo, CDF1 mice, three weeks observation
Excerpt: (§1) LD50 (mg/Kg) after three weeks observation in CDF1 mice (female, 8-10 weeks old)

CDF1 mice = experiment: Acute toxicity, LD50 after three weeks observation; assay type: in vivo, female); settings: from Table 1, compared with FT-207 and 5-FU
Excerpt: as §1

[7] = clinical background; cited from earlier work
[8] = ip, intraperitoneal administration
[9] = sc, subcutaneous administration

SMILES: O=c1[nH]c(=O)n(C2CCCO2)cc1F (stereo not drawn) [FT-207, reference compound]
- Tumor growth (weight : T/C %) (Sarcoma-180 (S-180) [1]; 25 mg/Kg oral): 148%
- Tumor growth (weight : T/C %) (Sarcoma-180 (S-180) [1]; 50 mg/Kg oral): 269%
- Tumor growth (weight : T/C %) (Sarcoma-180 (S-180) [1]; 100 mg/Kg oral): 58%
- Tumor growth (weight : T/C %) (Sarcoma-180 (S-180) [1]; 200 mg/Kg oral): 43%
- Tumor growth (weight : T/C %) (Sarcoma-180 (S-180) [1]; 400 mg/Kg oral): 34%
- minimal effective dose (Sarcoma-180 (S-180) [1]; oral, S-180 solid tumor, from Table 4): ~100 mg/kg
- Mean survival days (L-1210 leukemia [2]; 200 mg/Kg i.p. in saline, 1 day before tumor implantation): 8.8 days
- Mean survival days (L-1210 leukemia [2]; 200 mg/Kg i.p. in saline, 2 days before tumor implantation): 9.0 days
- Mean survival days (L-1210 leukemia [2]; 200 mg/Kg i.p. in saline, 4 days before tumor implantation): 9.0 days
- ILS % over controls (L-1210 leukemia [3]; 50 mg/Kg i.p. in saline): 0%
- Mean survival days (L-1210 leukemia [3]; 50 mg/Kg i.p. in saline): 7.0 days
- ILS % over controls (L-1210 leukemia [3]; 200 mg/Kg i.p. in saline): 1%
- Mean survival days (L-1210 leukemia [3]; 200 mg/Kg i.p. in saline): 7.1 days
- effectiveness (L-1210 leukemia [3]; dose of about 1/4 LD50): it cannot be confirmed that FT-207 is effective

SMILES: Cc1c(C)c2c(c(C)c1OC(=O)n1cc(F)c(=O)[nH]c1=O)CCC(C)(CCCC(C)CCCC(C)CCCC(C)C)O2 (racemic) [Compound A, N1-d,l-α-tocopheryl carbonyl-5-fluorouracil]
- Tumor growth (TPCV : T/C %) (Sarcoma-180 (S-180) [4]; 62 mg/Kg): 77.5%
- Tumor growth (TPCV : T/C %) (Sarcoma-180 (S-180) [4]; 125 mg/Kg): 64.7%
- Tumor growth (TPCV : T/C %) (Sarcoma-180 (S-180) [4]; 250 mg/Kg): 30.4%
- Tumor growth (TPCV : T/C %) (Sarcoma-180 (S-180) [4]; 500 mg/Kg): 3.3%
- Tumor growth (TPCV : T/C %) (Sarcoma-180 (S-180) [4]; 1000 mg/Kg): 0%
- Tumor growth (TPCV : T/C %) (Sarcoma-180 (S-180) [4]; 2000 mg/Kg): 0%
- Tumor growth (TPCV : T/C %) (Sarcoma-180 (S-180) [4]; 4000 mg/Kg): 0%
- ED50 (Sarcoma-180 (S-180) [4]): ~170 mg/kg
- safety index (LD50 /ED50) (Sarcoma-180 (S-180) [4]): more than 24
- toxicity as an antitumor agent (Sarcoma-180 (S-180) [4]; compared with 5-FU): less toxic
- ILS (%) over control (Sarcoma-180 (S-180) [5]; 500 mg/Kg): 139.1%
- Mean survival days (Sarcoma-180 (S-180) [5]; 500 mg/Kg): 33.0 days
- ILS (%) over control (Sarcoma-180 (S-180) [5]; 1000 mg/Kg): 215.2%
- Mean survival days (Sarcoma-180 (S-180) [5]; 1000 mg/Kg): 43.5 days
- ILS (%) over control (Sarcoma-180 (S-180) [5]; 2000 mg/Kg): 160.9%
- Mean survival days (Sarcoma-180 (S-180) [5]; 2000 mg/Kg): 36.0 days
- ILS (%) over control (Sarcoma-180 (S-180) [5]; 4000 mg/Kg): 182.6%
- Mean survival days (Sarcoma-180 (S-180) [5]; 4000 mg/Kg): 39.0 days
- survival effect (Sarcoma-180 (S-180) [5]; single administration of 1/8 LD50): marked effect
- Tumor growth (weight : T/C %) (Sarcoma-180 (S-180) [1]; 62 mg/Kg oral): 106%
- Tumor growth (weight : T/C %) (Sarcoma-180 (S-180) [1]; 125 mg/Kg oral): 87%
- Tumor growth (weight : T/C %) (Sarcoma-180 (S-180) [1]; 250 mg/Kg oral): 33%
- Tumor growth (weight : T/C %) (Sarcoma-180 (S-180) [1]; 500 mg/Kg oral): 47%
- Tumor growth (weight : T/C %) (Sarcoma-180 (S-180) [1]; 1000 mg/Kg oral): 38%
- Tumor growth (weight : T/C %) (Sarcoma-180 (S-180) [1]; 2000 mg/Kg oral): 36%
- minimal effective dose (Sarcoma-180 (S-180) [1]; S-180, po): ~250 mg/kg
- availability (Sarcoma-180 (S-180) [1]; compared with FT-207 and 5-FU): higher than those of the other two drugs
- ratio of the minimum effective dose to toxic dose (LD50) (Sarcoma-180 (S-180) [1]; oral, S-180 solid tumor): less than 1/16
- Mean survival days (L-1210 leukemia [2]; 1000 mg/Kg i.p. in MCT, 0 days before tumor implantation): 11.6 days
- Mean survival days (L-1210 leukemia [2]; 1000 mg/Kg i.p. in MCT, 1 day before tumor implantation): 13.0 days
- Mean survival days (L-1210 leukemia [2]; 1000 mg/Kg i.p. in MCT, 2 days before tumor implantation): 16.4 days
- Mean survival days (L-1210 leukemia [2]; 1000 mg/Kg i.p. in MCT, 3 days before tumor implantation): 11.8 days
- Mean survival days (L-1210 leukemia [2]; 1000 mg/Kg i.p. in MCT, 4 days before tumor implantation): 11.2 days
- Mean survival days (L-1210 leukemia [2]; 1000 mg/Kg i.p. in MCT, 6 days before tumor implantation): 13.5 days
- duration of antitumor effects (L-1210 leukemia [2]; from Table 6): 6 days
- survival effects (L-1210 leukemia [2]; same day of implantation, or 1-6 days prior to the implantation): exhibits survival effects
- ILS % over controls (L-1210 leukemia [3]; 125 mg/Kg i.p. in MCT): 0%
- Mean survival days (L-1210 leukemia [3]; 125 mg/Kg i.p. in MCT): 7.0 days
- ILS % over controls (L-1210 leukemia [3]; 250 mg/Kg i.p. in MCT): 14%
- Mean survival days (L-1210 leukemia [3]; 250 mg/Kg i.p. in MCT): 8.0 days
- ILS % over controls (L-1210 leukemia [3]; 500 mg/Kg i.p. in MCT): 40%
- Mean survival days (L-1210 leukemia [3]; 500 mg/Kg i.p. in MCT): 9.8 days
- ILS % over controls (L-1210 leukemia [3]; 1000 mg/Kg i.p. in MCT): 73%
- Mean survival days (L-1210 leukemia [3]; 1000 mg/Kg i.p. in MCT): 12.1 days
- ILS % over controls (L-1210 leukemia [3]; 2000 mg/Kg i.p. in MCT): 79%
- Mean survival days (L-1210 leukemia [3]; 2000 mg/Kg i.p. in MCT): 12.5 days
- ILS % over controls (L-1210 leukemia [3]; 4000 mg/Kg i.p. in MCT): 93%
- Mean survival days (L-1210 leukemia [3]; 4000 mg/Kg i.p. in MCT): 13.5 days
- availability (L-1210 leukemia [3]; compared with 5-FU): higher than that of 5-FU
- ratio of dose (corresponding ILS) to LD50, compared with 5-FU (L-1210 leukemia [3]; compared with 5-FU): smaller than that of 5-FU
- effectiveness (L-1210 leukemia [3]; dose of about 1/8 LD50): effective
- LD50 at 504 h [6, 8]: > 4000 mg/kg
- LD50 at 504 h [6, 9]: > 4000 mg/kg
- LD50 at 504 h ([6]; oral administration): > 4000 mg/kg
- acute toxicity (CDF1 mice): lower acute toxicity than FT-207 and 5-FU

SMILES: O=c1[nH]cc(F)c(=O)[nH]1 [Example 5-FU, 5-fluorouracil]
- Tumor growth (TPCV : T/C %) (Sarcoma-180 (S-180) [4]; 34 mg/Kg): 43.3%
- Tumor growth (TPCV : T/C %) (Sarcoma-180 (S-180) [4]; 68 mg/Kg): 26.4%
- Tumor growth (TPCV : T/C %) (Sarcoma-180 (S-180) [4]; 125 mg/Kg): 4.3%
- Tumor growth (TPCV : T/C %) (Sarcoma-180 (S-180) [4]; 250 mg/Kg): died
- Tumor growth (TPCV : T/C %) (Sarcoma-180 (S-180) [4]; 500 mg/Kg): died
- ED50 (Sarcoma-180 (S-180) [4]): ~25 mg/kg
- safety index (LD50 /ED50) (Sarcoma-180 (S-180) [4]): about 5
- Tumor growth (weight : T/C %) (Sarcoma-180 (S-180) [1]; 10 mg/Kg oral): 156%
- Tumor growth (weight : T/C %) (Sarcoma-180 (S-180) [1]; 20 mg/Kg oral): 55%
- Tumor growth (weight : T/C %) (Sarcoma-180 (S-180) [1]; 40 mg/Kg oral): 52%
- Tumor growth (weight : T/C %) (Sarcoma-180 (S-180) [1]; 80 mg/Kg oral): 63%
- minimal effective dose (Sarcoma-180 (S-180) [1]; S-180, po): ~20 mg/kg
- ratio of the minimum effective dose to toxic dose (LD50) (Sarcoma-180 (S-180) [1]; oral, S-180 solid tumor): about 1/6
- Mean survival days (L-1210 leukemia [2]; 50 mg/Kg i.p. in saline, 1 day before tumor implantation): 9.0 days
- Mean survival days (L-1210 leukemia [2]; 50 mg/Kg i.p. in saline, 2 days before tumor implantation): 9.0 days
- Mean survival days (L-1210 leukemia [2]; 50 mg/Kg i.p. in saline, 4 days before tumor implantation): 8.8 days
- ILS % over controls (L-1210 leukemia [3]; 15 mg/Kg i.p. in saline): 15%
- Mean survival days (L-1210 leukemia [3]; 15 mg/Kg i.p. in saline): 8.1 days
- ILS % over controls (L-1210 leukemia [3]; 30 mg/Kg i.p. in saline): 25%
- Mean survival days (L-1210 leukemia [3]; 30 mg/Kg i.p. in saline): 8.8 days
- ILS % over controls (L-1210 leukemia [3]; 60 mg/Kg i.p. in saline): 38%
- Mean survival days (L-1210 leukemia [3]; 60 mg/Kg i.p. in saline): 9.7 days
- toxicity at the effective dosage [7]: relatively severe toxicity
- LD50 at 504 h [6, 8]: 150 mg/kg
- LD50 at 504 h [6, 9]: 175 mg/kg
- LD50 at 504 h ([6]; intravenous administration): 135 mg/kg
- LD50 at 504 h ([6]; oral administration): 120 mg/kg
